Patent US6340684B1, “Phthalazine derivatives as phosphodiesterase 4 inhibitors” (Zambon Group S.p.A., priority 1998, dated 2002)

Target: PDE 4 enzyme
Test: PDE 4 enzyme inhibition (Scintillation Proximity Assay, enzyme purified from human polymorphonuclear leukocytes)
Format: biochemical
Conditions: PDE 4 from human PMNs; SPA, [3H]cAMP, 40 minutes at 30° C.; read-out: IC50 (concentration required to inhibit cyclic nucleotide hydrolysis by 50%)
Experimental: Human polymorphonuclear leukocyte isolation
The polymorphonuclear leukocytes (PMNs) were isolated from peripheral blood of healthy volunteers according to Boyum A. (Scand. J. Immunol., 1976, 5th suppl., 9). Briefly, the PMNs were purified by Ficoll-Paque gradient centrifugation followed by sedimentation on dextran and the erythrocyte contamination was eliminated by hypotonic lysis.
PDE 4 enzyme purification
The human PMNs were suspended in TRIS/HCl buffer (10 mM, pH 7.8) containing MgCl2 (5 mM), EGTA (4 mM), mercaptoethanol (5 mM), TRITON-X100 (1%), pepstatin A (1 μM), PMSF (100 μM) and leupeptin (1 μM), and homogenised by Polytron homogeniser. The homogenate was centrifuged at 25,000×g for 30 minutes at 4° C. and the PDE 4 enzyme was purified by ion exchange chromatography using the FPLC technique according to Schudt C. et al. (Naunyn-Schmidberg's Arch. Pharmacol., 1991, 334, 682). The supernatant was seeded on a UNO Q12 column (Bio-Rad) and the enzyme was eluted by sodium acetate linear gradient from 50 mM to 1M using a flow rate of 4.5 ml/minutes. […]
The enzyme activity was evaluated with a Scintillation Proximity Assay (SPA) kit (Amersham). […]
SPA beads (50 μl) containing 18 mM zinc sulphate were added to stop the reaction and after 20 minutes at room temperature the radioactivity was measured using a scintillation counter. […]

**Q.** `CS(=O)(=O)N1Cc2c(ccc(OC(F)F)c2OC2CCCO2)C(Cc2c(Cl)cncc2Cl)=N1` (stereo not shown) [Compound 10, 1-(3,5-dichloro-pyridin-4-ylmethyl)-3-methansulphonyl-6-difluoromethoxy-5-(tetrahydro-furan-2-yloxy)-4H-phthalazine] was tested. Which IC50 did it give?
**A.** 8 ± 0.5 nM
